Data published in PMC12118597 (Science Advances, 2025).
Several values for one entry are separate records, joined by “and”; a condition that tells them apart may be missing. Equal entries are not always repeated. Where two headings read alike, the source gives them in different places.

Experiments:
[1] = biological target: T1, SARS-CoV-2 NSP3 macrodomain (Mac1) (Severe acute respiratory syndrome coronavirus 2, UniProt P0DTD1); assay type: binding; conditions: for 1-BDC: PanDDA background density correction factor; for PanDDA run, overall: Hit / PanDDA run, DMSO background map: 1-BDC / PanDDA run, DMSO background map: Hit / PanDDA run, TFA/DMSO background map: 1-BDC / PanDDA run, TFA/DMSO background map: Hit: crystal soak 10 mM; for PanDDA run, overall: Hit: P43 crystal form; for Total number of conformations: ligand conformations modeled in the crystal structure; for Number of isomers bound: ligand modeling, Mac1 crystal soak; for 2*(1-BDC) (%): occupancy estimate from PanDDA; for Refined ligand occupancy (%): refined crystallographic occupancy; for Isomers modeled: stereoisomer(s) modeled as bound, residues 201/202/203
[2] = biological target: T1, SARS-CoV-2 NSP3 macrodomain (Mac1); assay: biochemical; assay type: binding
[3] = HTRF binding curve, SARS-CoV-2 Mac1
[4] = SARS CoV-2 macrodomain HTRF assay
[5] = SARS CoV-2 macrodomain HTRF assay, dose-response
[6] = SARS CoV-2 macrodomain HTRF assay, single dose concentration 200 μM, read-out: Average % competition
[7] = compound at 200 μM, mean of three to four technical replicates, read-out: % competition at 200 μM (preliminary HTRF screen)
[8] = SARS CoV-2 macrodomain HTRF assay, dose-response, read-out: IC50
[9] = Single dose, concentration 200 μM

Compound	PanDDA run, TFA/DMSO background map: 1-BDC [1]	PanDDA run, TFA/DMSO background map: Hit [1]	Number of isomers bound [1]	inhibition at 200 µM [2, 7]	Average % competition [2, 9]	further results
CC(C)(O)[C@@H]1CCCN1c1ncnc2[nH]ccc12 [AVI-1445, (S)-2-(1-(7H-pyrrolo[2,3-d]pyrimidin-4-yl)pyrrolidin-2-yl)propan-2-ol]	0.12	TRUE	1	75%	–	Occupancy difference (refined_occupancy - 2*(1-BDC)) [1]: 0; 1-BDC [1]: 0.12; PanDDA run, overall: Hit [1]: TRUE; PanDDA run, DMSO background map: 1-BDC [1]: 0.12; PanDDA run, DMSO background map: Hit [1]: TRUE; Total number of conformations [1]: 1; X-ray crystal structure ([1]; ligand-bound crystal structure obtained (TRUE)): TRUE; 2*(1-BDC) (%) [1]: 24%; Refined ligand occupancy (%) [1]: 24%; Binding site ([1]; site occupied in X-ray crystal structure): Adenosine; Hill slope [2, 3]: 1.1; Ki [2, 4]: 100 µM; Ligand efficiency (binding enery per heavy atom) [2, 4]: 0.31; Hill slope [2, 5]: 1.6; inhibition at 200 µM [2, 6]: 75%; IC50 ([2]; read-out: IC50 (confirmatory HTRF dose-response screen)): 110 µM
Cc1c[nH]c2ncnc(NCC3(O)CCC3)c12 [AVI-3571, 1-(((5-methyl-7H-pyrrolo[2,3-d]pyrimidin-4-yl)amino)methyl)cyclobutan-1-ol]	–	–	1	–	–	Occupancy difference (refined_occupancy - 2*(1-BDC)) [1]: 0; 1-BDC [1]: 0.15; X-ray crystal structure ([1]; TRUE = crystal structure with ligand obtained): TRUE; PanDDA run, overall: Hit [1]: TRUE; PanDDA run, DMSO background map: 1-BDC [1]: 0.15 and 0.2; PanDDA run, DMSO background map: Hit [1]: TRUE; Total number of conformations [1]: 2; 2*(1-BDC) (%) [1]: 30%; Refined ligand occupancy (%) [1]: 30%; Binding site ([1]; site of ligand in X-ray crystal structure): Adenosine; Hill slope [2, 3]: 1.0; Ki [2, 4]: 14 µM; Ligand efficiency (binding enery per heavy atom) [2, 4]: 0.39; Hill slope [2, 5]: 1.0; IC50 [2, 8]: 15 µM
CCC(Nc1ncnc2[nH]ccc12)C(C)O (stereo not drawn) [AVI-3635]	0.11 and 0.08	TRUE	1	54%	54%	–
OCC(CC(F)(F)F)Nc1ncnc2[nH]ccc12 (stereo not drawn) [AVI-3637]	0.21	TRUE	1	50%	50%	–
OCC(Nc1ncnc2[nH]ccc12)C1CCC1 (stereo not drawn) [AVI-3638]	0.1	TRUE	1	77%	77%	–
O=C(O)C(F)(F)F.O[C@H]1CCC[C@@H]1Nc1ncnc2[nH]ccc12 [AVI-3639]	0.09	TRUE	1	74%	74%	–
OCC(CC1CCC1)Nc1ncnc2[nH]ccc12 (stereo not drawn) [AVI-3641]	0.11	TRUE	1	32%	32%	–
OCC(CC(O)c1ccccc1)Nc1ncnc2[nH]ccc12 (stereo not drawn) [AVI-3642]	0.17	TRUE	1	< 10%	<10%	–
CCCC(CO)Nc1ncnc2[nH]ccc12 (stereo not drawn) [AVI-3643]	0.14	TRUE	1	63%	–	inhibition at 200 µM ([2]; Single dose, concentration 200 μM, read-out: Average % competition): 63%
C#CCC(CO)Nc1ncnc2[nH]ccc12 (stereo not drawn) [AVI-3644]	0.11	TRUE	1	43%	43%	–
OC1CCCN(c2ncnc3[nH]ccc23)C1 (stereo not drawn) [AVI-3646]	0.13	TRUE	1	20%	–	Average % competition ([2]; SARS CoV-2 macrodomain HTRF assay, single dose concentration 200 μM): 20%
CC(C)(C)CC(CO)Nc1ncnc2[nH]ccc12 (stereo not drawn) [AVI-3648]	0.16	TRUE	1	27%	27%	–
OCC(Nc1ncnc2[nH]ccc12)C1CCCC1 (stereo not drawn) [AVI-3649]	0.11	TRUE	1	68%	68%	–
OCC(Cc1c[nH]c2ccccc12)Nc1ncnc2[nH]ccc12 (stereo not drawn) [AVI-3650]	0.11	TRUE	2	71%	71%	Isomers modeled [1]: R,S
OCC(Nc1ncnc2[nH]ccc12)C1CC1 (stereo not drawn) [AVI-3651]	0.16	TRUE	1	–	–	Ki [2, 4]: 45 µM; Ligand efficiency (binding enery per heavy atom) [2, 4]: 0.38; IC50 [2, 8]: 48 µM
OC(c1ccccc1)C1CCCN1c1ncnc2[nH]ccc12 (stereo not drawn) [AVI-3652]	0.16	TRUE	1	35%	–	inhibition at 200 µM [2, 6]: 35%
CC1CCN(c2ncnc3[nH]ccc23)C1CO (stereo not drawn) [AVI-3655]	0.18	TRUE	1	75%	–	inhibition at 200 µM [2, 6]: 75%
CO[C@@H]1C[C@H](CO)N(c2ncnc3[nH]ccc23)C1 [AVI-3656]	–	–	1	41%	–	inhibition at 200 µM [2, 6]: 41%
Cn1cc(CC(CO)Nc2ncnc3[nH]ccc23)cn1 (stereo not drawn) [AVI-3657]	0.09	TRUE	1	24%	24%	–
OCC(CC1OCCO1)Nc1ncnc2[nH]ccc12 (stereo not drawn) [AVI-3658]	–	–	1	11%	11%	–
OCC(Nc1ncnc2[nH]ccc12)c1ccco1 (stereo not drawn) [AVI-3659]	0.08	TRUE	1	55%	55%	–
OCC(CC1CCCO1)Nc1ncnc2[nH]ccc12 (stereo not drawn) [AVI-3660]	0.17	TRUE	1	18%	18%	–
OC1CCN(c2ncnc3[nH]ccc23)C1 (stereo not drawn) [AVI-3661]	0.12	TRUE	–	11%	–	inhibition at 200 µM [2, 6]: 11%
OCC(CC1CC1)Nc1ncnc2[nH]ccc12 (stereo not drawn) [AVI-3662]	0.09	TRUE	1	44%	44%	–
O[C@H]1CC[C@@H]2CCN(c3ncnc4[nH]ccc34)[C@@H]21 [AVI-3664]	0.15	TRUE	1	–	–	Isomers modeled [1]: SRS; Ki [2, 4]: 26 µM; Ligand efficiency (binding enery per heavy atom) [2, 4]: 0.35; IC50 [2, 8]: 28 µM
